{"source": "paper PMC3598812", "about": "“Evaluation of Anti-Hyperalgesic and Analgesic Effects of Two Benzodiazepines in Human Experimental Pain: A Randomized Placebo-Controlled Study” (PLoS ONE, 2013)", "key": {"healthy male volunteers [1]": {"tested_on": "healthy male volunteers", "assay": "Area of static hyperalgesia after intradermal capsaicin injection (512 mN von Frey hair)", "format": "in vivo, human", "details": "for Area of static hyperalgesia: single oral dose (clobazam 20 mg, clonazepam 1 mg, tolterodine 1 mg), mean (SD)", "excerpt": "Intradermal injection of capsaicin causes a brief stinging/burning pain at the injection site followed by development of secondary hyperalgesia, i.e. hyperalgesia detected at surrounding (not injected) skin [15], [16]. Secondary hyperalgesia after intradermal capsaicin is the result of sensitization of the central nervous system, which is one of the most relevant aspects of neuroplastic changes. This model was sensitive to the action of GABAergic compounds in animal studies.\nThe capsaicin solution was prepared by the Hospital Pharmacy and underwent sterile filtration into sterile septum-sealed vials. The sterile solution (1 mg/ml) was placed into sterile syringes and used for intradermal injection at room temperature. The skin temperature was measured using a digital thermometer, and was 32°C+/−1 in all subjects.\nSubjects remained semi-supine during the experiment. Before capsaicin injection, the skin of the forearm was cleaned using an antiseptic wipe and allowed to air dry. The injection site was marked midway between the elbow and the wrist. Using a surgical skin marker, 4 lines were drawn through the injection site, so that they intersected the corners of a regular octagon (figure 2). These lines were marked every 0.5 cm from the center to the edges using a predefined grid. […] We determined the area of hyperalgesia by adding the areas of each triangle in which hyperalgesia was recorded.\nUsing a 1-ml tuberculin syringe fitted with a 27-gauge disposable needle, 100 µl capsaicin were injected […] into the skin, at the intersection of the 4 vectors previously drawn. A white skin elevation appeared during injection ensuring correct injection.\nStatic mechanical hyperalgesia was judged to be present when the subjects reported that applying a 512 mN von Frey Hair, 5 and 30 minutes after capsaicin injection, elicited pain with an intensity of at least 4 using a numerical rating scale (NRS, whereby 0 = no pain and 10 = worst pain). Only these subjects were included in the study. In order to document pain induction, the subject recorded pain intensity at injection and 5 minutes post-injection using a 10 cm visual analogue pain scale (VAS), whereby 0 = no pain and 10 = worst pain imaginable.\nThe area of secondary hyperalgesia was assessed using a calibrated 512 mN von Frey hair. The punctuated probe was moved along the 8 radial lines defined above, starting approximately 6 cm away from the site of injection, at each mark in steps of 0.5 cm. The weighted von Frey hair was placed gently on the skin and the load was applied for 2 seconds. The volunteers were asked to report when the pricking sensation changed to a pain sensation. At least 4 seconds elapsed between consecutive stimuli. This procedure was repeated for each vector. The number corresponding to the marker at which sensation changes as described above was noted and the individual numbers were used to calculate the area of hyperalgesia.\nThe flow of the experiment is illustrated in figure 3. After training, basal values for the pain tests were determined. The study medication was given immediately after the intradermal injection of capsaicin. Thus, basal values were recorded for all tests, except for those related to capsaicin injection. Because of the relatively short duration of hyperalgesia induced by capsaicin, the recordings of basal values before drug administration would yield a too short testing procedure."}, "healthy male volunteers [2]": {"tested_on": "healthy male volunteers", "assay": "Area of dynamic mechanical hyperalgesia after intradermal capsaicin (cotton wool stroking)", "format": "in vivo, human", "details": "single oral dose (clobazam 20 mg, clonazepam 1 mg, tolterodine 1 mg), mean (SD)", "protocol": "The area of dynamic mechanical hyperalgesia was determined by gently stroking a hand-held cotton wool tip on a 1 cm strip of the skin, at a rate of approximately 1 cm/s. Subjects were asked to report when the sensation changed from a non-painful to a painful sensation. The borders of dynamic hyperalgesia were delineated similarly to the determination of static hyperalgesia."}, "healthy male volunteers [3]": {"tested_on": "healthy male volunteers", "assay": "Pain rating (VAS) after graded von Frey hair stimulation in the capsaicin hyperalgesic area", "format": "in vivo, human", "protocol": "Additionally, mechanical pain sensitivity was assessed using a set of seven weighted pinprick stimuli to obtain a stimulus-response function. The test was applied 1 cm inside the outer border of the pinprick hyperalgesic area, using a set of 7 graded von Frey hair mechanical stimulators with fixed stimulus intensities (custom-made at Aalborg University, Denmark). The flat contact area of the stimulators has a 0.2 mm diameter, and the 7 stimulators exert forces of 8, 16, 32, 64, 128, 256 and 512 mN. The order of stimulation was defined randomly by computer. The stimulators were applied at a rate of 2 s on/2 s off. Subjects were asked to give a pain rating for each stimulus on a 10 cm VAS. Two assessments for each stimulation were made and the mean of these 2 measurements was used for the data analysis."}, "healthy male volunteers [4]": {"tested_on": "healthy male volunteers", "assay": "Intramuscular repeated (5 stimuli) electrical stimulation pain threshold", "format": "in vivo, human", "details": "for Pain threshold after 5 intramuscular electrical stimuli: mean (SD)", "excerpt": "The stimulus burst used for single stimulus was repeated 5 times at 2 Hz, at constant intensity. The current intensity of the 5 stimuli was increased from 1 mA in steps of 0.5 mA until the subjects felt pain during the last 2–3 of the 5 stimuli (indicating temporal summation).\nA needle was placed in the tibialis anterior muscle, 14 cm distal from the caudal end of the patella and 20 mm in depth. The same single and repeated stimulation patterns and the same procedure described for cutaneous stimulation were used."}, "patients / volunteers": {"tested_on": "patients / volunteers", "details": "cited from earlier work"}, "[5]": {"details": "VAS 0-10, single oral dose (clobazam 20 mg, clonazepam 1 mg, tolterodine 1 mg), 30 min after medication, mean (SD)"}, "[6]": {"details": "VAS 0-10, single oral dose (clobazam 20 mg, clonazepam 1 mg, tolterodine 1 mg), 60 min after medication, mean (SD)"}, "[7]": {"details": "VAS 0-10, single oral dose (clobazam 20 mg, clonazepam 1 mg, tolterodine 1 mg), 90 min after medication, mean (SD)"}, "[8]": {"details": "VAS 0-10, single oral dose (clobazam 20 mg, clonazepam 1 mg, tolterodine 1 mg), 120 min after medication, mean (SD)"}, "[9]": {"details": "VAS 0-10, single oral dose (clobazam 20 mg, clonazepam 1 mg, tolterodine 1 mg), after flumazenil 0.2 mg iv, mean (SD)"}, "[10]": {"details": "placebo-controlled, double-blind trial, 114 outpatients with anxiety, mean doses 59 mg clobazam daily, 25 mg diazepam daily, ref Micromedex 2009"}}, "note": "Entries after “also recorded” stand apart in the source; their conditions may differ."}
{"compound": "CN1C(=O)CC(=O)N(c2ccccc2)c2cc(Cl)ccc21", "note": "[Clobazam]", "values": [{"measurement": "Change in the area of static hyperalgesia over time", "setting": "healthy male volunteers [1]; main analysis, pairwise multiple comparisons within each drug", "result": "no statistically significant increase"}, {"measurement": "Area of static hyperalgesia", "setting": "healthy male volunteers [1]; 30 min after medication", "result": "39.7 (18.6) cm^2"}, {"measurement": "Area of static hyperalgesia", "setting": "healthy male volunteers [1]; 60 min after medication", "result": "44.3 (17.1) cm^2"}, {"measurement": "Area of static hyperalgesia", "setting": "healthy male volunteers [1]; 90 min after medication", "result": "43.0 (15.0) cm^2"}, {"measurement": "Area of static hyperalgesia", "setting": "healthy male volunteers [1]; 120 min after medication", "result": "43.6 (16.5) cm^2"}, {"measurement": "Area of static hyperalgesia", "setting": "healthy male volunteers [1]; after flumazenil 0.2 mg iv", "result": "43.8 (15.0) cm^2"}, {"measurement": "Area of dynamic hyperalgesia", "setting": "healthy male volunteers [2]; 30 min after medication", "result": "22.3 (13.2) cm^2"}, {"measurement": "Area of dynamic hyperalgesia", "setting": "healthy male volunteers [2]; 60 min after medication", "result": "22.9 (12.4) cm^2"}, {"measurement": "Area of dynamic hyperalgesia", "setting": "healthy male volunteers [2]; 90 min after medication", "result": "22.4 (13.6) cm^2"}, {"measurement": "Area of dynamic hyperalgesia", "setting": "healthy male volunteers [2]; 120 min after medication", "result": "16.7 (13.0) cm^2"}, {"measurement": "Area of dynamic hyperalgesia", "setting": "healthy male volunteers [2]; after flumazenil 0.2 mg iv", "result": "21.3 (14.6) cm^2"}, {"measurement": "VAS after von Frey hair 8 mN", "setting": "healthy male volunteers [3]; [5]", "result": "1.1 (1.2)"}, {"measurement": "VAS after von Frey hair 16 mN", "setting": "healthy male volunteers [3]; [5]", "result": "2.0 (2.1)"}, {"measurement": "VAS after von Frey hair 32 mN", "setting": "healthy male volunteers [3]; [5]", "result": "2.0 (1.6)"}, {"measurement": "VAS after von Frey hair 64 mN", "setting": "healthy male volunteers [3]; [5]", "result": "2.3 (2.0)"}, {"measurement": "VAS after von Frey hair 128 mN", "setting": "healthy male volunteers [3]; [5]", "result": "2.9 (2.0)"}, {"measurement": "VAS after von Frey hair 256 mN", "setting": "healthy male volunteers [3]; [5]", "result": "3.3(2.3)"}, {"measurement": "VAS after von Frey hair 512 mN", "setting": "healthy male volunteers [3]; [5]", "result": "4.5 (2.5)"}, {"measurement": "VAS after von Frey hair 8 mN", "setting": "healthy male volunteers [3]; [6]", "result": "1.9 (3.3)"}, {"measurement": "VAS after von Frey hair 16 mN", "setting": "healthy male volunteers [3]; [6]", "result": "2.3 (3.2)"}, {"measurement": "VAS after von Frey hair 32 mN", "setting": "healthy male volunteers [3]; [6]", "result": "2.4 (2.8)"}, {"measurement": "VAS after von Frey hair 64 mN", "setting": "healthy male volunteers [3]; [6]", "result": "2.5 (2.0)"}, {"measurement": "VAS after von Frey hair 128 mN", "setting": "healthy male volunteers [3]; [6]", "result": "3.4 (2.7)"}, {"measurement": "VAS after von Frey hair 256 mN", "setting": "healthy male volunteers [3]; [6]", "result": "3.7 (2.6)"}, {"measurement": "VAS after von Frey hair 512 mN", "setting": "healthy male volunteers [3]; [6]", "result": "4.8 (2.8)"}, {"measurement": "VAS after von Frey hair 8 mN", "setting": "healthy male volunteers [3]; [7]", "result": "1.2 (1.4)"}, {"measurement": "VAS after von Frey hair 16 mN", "setting": "healthy male volunteers [3]; [7]", "result": "1.4 (1.6)"}, {"measurement": "VAS after von Frey hair 32 mN", "setting": "healthy male volunteers [3]; [7]", "result": "2.1 (2.2)"}, {"measurement": "VAS after von Frey hair 64 mN", "setting": "healthy male volunteers [3]; [7]", "result": "2.1 (1.9)"}, {"measurement": "VAS after von Frey hair 128 mN", "setting": "healthy male volunteers [3]; [7]", "result": "3.5 (2.3)"}, {"measurement": "VAS after von Frey hair 256 mN", "setting": "healthy male volunteers [3]; [7]", "result": "3.9 (2.5)"}, {"measurement": "VAS after von Frey hair 512 mN", "setting": "healthy male volunteers [3]; [7]", "result": "4.9 (2.6)"}, {"measurement": "VAS after von Frey hair 8 mN", "setting": "healthy male volunteers [3]; [8]", "result": "1.3 (1.4)"}, {"measurement": "VAS after von Frey hair 16 mN", "setting": "healthy male volunteers [3]; [8]", "result": "1.3 (1.5)"}, {"measurement": "VAS after von Frey hair 32 mN", "setting": "healthy male volunteers [3]; [8]", "result": "1.9 (1.9)"}, {"measurement": "VAS after von Frey hair 64 mN", "setting": "healthy male volunteers [3]; [8]", "result": "2.7 (2.7)"}, {"measurement": "VAS after von Frey hair 128 mN", "setting": "healthy male volunteers [3]; [8]", "result": "3.0 (2.6)"}, {"measurement": "VAS after von Frey hair 256 mN", "setting": "healthy male volunteers [3]; [8]", "result": "3.8 (2.6)"}, {"measurement": "VAS after von Frey hair 512 mN", "setting": "healthy male volunteers [3]; [8]", "result": "4.7 (2.7)"}, {"measurement": "VAS after von Frey hair 8 mN", "setting": "healthy male volunteers [3]; [9]", "result": "1.1 (1.1)"}, {"measurement": "VAS after von Frey hair 16 mN", "setting": "healthy male volunteers [3]; [9]", "result": "1.3 (1.1)"}, {"measurement": "VAS after von Frey hair 32 mN", "setting": "healthy male volunteers [3]; [9]", "result": "1.9 (1.9)"}, {"measurement": "VAS after von Frey hair 64 mN", "setting": "healthy male volunteers [3]; [9]", "result": "2.2 (1.7)"}, {"measurement": "VAS after von Frey hair 128 mN", "setting": "healthy male volunteers [3]; [9]", "result": "2.9 (2.1)"}, {"measurement": "VAS after von Frey hair 256 mN", "setting": "healthy male volunteers [3]; [9]", "result": "3.9 (2.2)"}, {"measurement": "VAS after von Frey hair 512 mN", "setting": "healthy male volunteers [3]; [9]", "result": "5.1 (2.5)"}, {"measurement": "VAS after von Frey hair 512 mN", "setting": "healthy male volunteers [3]; subgroup analysis (n = 8), 30 minutes, mean", "result": 3.2}, {"measurement": "VAS after von Frey hair 512 mN", "setting": "healthy male volunteers [3]; subgroup analysis (n = 8), 120 minutes, mean", "result": 5.1}, {"measurement": "Pain threshold after 5 intramuscular electrical stimuli", "setting": "healthy male volunteers [4]; baseline before medication, per drug session", "result": "1.4 (1.1) mA"}, {"measurement": "Change in pain threshold after 5 intramuscular electrical stimuli between baseline and 120 minutes", "setting": "healthy male volunteers [4]; main analysis, pairwise multiple comparison", "result": "statistically significant increase; also recorded: Significant increase in pain thresholds"}, {"measurement": "Change in pain detection threshold after 5 intramuscular electrical stimuli from baseline to peak value", "setting": "healthy male volunteers [4]; peak value analysis, pairwise comparisons within each drug", "result": "significant increase; also recorded: Consistent for an increase in pain thresholds after clobazam and clonazepam"}, {"measurement": "Pain threshold after 5 intramuscular electrical stimuli", "setting": "healthy male volunteers [4]; single oral dose (clobazam 20 mg, clonazepam 1 mg, tolterodine 1 mg), 120 min after medication", "result": "2.1 (2.2) mA"}, {"measurement": "Pain threshold after 5 intramuscular electrical stimuli", "setting": "healthy male volunteers [4]; single oral dose (clobazam 20 mg, clonazepam 1 mg, tolterodine 1 mg), after flumazenil 0.2 mg iv", "result": "2.2 (2.0) mA"}, {"measurement": "Effect on cognitive and psychomotor functions", "setting": "patients / volunteers; 20 mg clobazam, unlike 2 mg clonazepam", "result": "did not affect significantly"}, {"measurement": "Sedation compared with 1 mg of clonazepam", "setting": "patients / volunteers; 20 mg of clobazam", "result": "less sedative"}, {"measurement": "Dizziness, share of treated patients", "setting": "patients / volunteers; [10]", "result": 2, "unit": "%"}, {"measurement": "Sedation, share of treated patients", "setting": "patients / volunteers; [10]", "result": 38, "unit": "%"}]}
